The source of these data is patent US20260309717A1, “PROXIMITY INDUCING SYSTEM AND USES THEREOF” (SORBONNE UNIVERSITE, priority 2022, published 2026).

This assay deals with T1, ^FIREmate and ^FIREtag (TOM20-ECFP-^FIREmate / mCherry-^FIREtag) (Halorhodospira halophila, UniProt P16113, A30V/C69G/D97P/F96I, form not given/G21E/G25R/K17N/M100R/M109L/Q41L/Q99S/S72T/T101G/V83A/Y94W/Y98T).
T1 construct: TOM20(1-34)-ECFP-FIREmate and mCherry-FIREtag in HeLa or U2OS cells
T1 sequence (P16113 1-114 A30V/C69G/D97P/F96I/G21E/G25R/K17N/M100R/M109L/Q41L/Q99S/S72T/T101G/V83A/Y94W/Y98T): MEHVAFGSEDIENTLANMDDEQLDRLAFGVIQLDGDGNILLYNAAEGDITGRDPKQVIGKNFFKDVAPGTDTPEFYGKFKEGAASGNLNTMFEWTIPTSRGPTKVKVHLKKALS
Put plainly: Recruitment of cytoplasmic mCherry-^FIREtag to mitochondria (TOM20-ECFP-^FIREmate), time-lapse confocal microscopy, HeLa cells. Format: cell-based. The conditions noted are these: 10 μM. Here is the method:
FIGS. 3A-E illustrate the recruitment of cytoplasmic proteins to mitochondria with the proximity inducing system described herein. FIG. 3A is a schematic representation of the experimental design wherein HeLa cells co-expressing mCherry-^FIREtag and Tom20-ECFP-^FIREmate were treated with 10 μM of match (either HBR-2,5DM or HMBR), and imaged by time-lapse confocal microscopy. FIGS. 3B-C are graphs showing the temporal evolution of the FIRE signal detected upon addition at 0 min of HBR-2,5DM (match1-3B) or HMBR (match2-3C). Data represents the mean values±SD of 20 cells from n=3 independent experiments (3B, D), or of 10 cells from n=3 independent experiments (3C, E). FIGS. 3D-E are sets of representative confocal micrographs of cells before (0 min) and after (5 min) addition of HBR-2,5DM (match1-3D) or HMBR (match2-3E) (mCherry: ex/em 561/606-675 nm; FIRE: ex/em 488/508-570 nm; ECFP: ex/em 445/455-499 nm). […] Scale bars are 20 μm.
FIGS. 4A-D illustrate the recruitment over time of cytoplasmic proteins to mitochondria with the proximity inducing system described herein. (4A, C) HeLa cells co-expressing mCherry-^FIREtag and Tom20-ECFP-^FIREmate were treated with 10 μM HBR-2,5DM and imaged by time-lapse confocal microscopy at 1 image per 5 seconds. […] FIG. 4C is a graph showing the temporal evolution of the FIRE signal detected in HeLa cells upon addition of HBR-2,5DM at 0 sec. […] FIG. 4D is a graph showing the temporal evolution of the FIRE signal detected in U2OS cells upon addition of HBR-2,5DM at 0 min. […]
The confocal micrographs were acquired on a Zeiss LSM 980 Laser Scanning Microscope equipped with a plan apochromat 63x/1.4 NA oil immersion objective. […] The images were analyzed using Icy (2.4.0.0) and Fiji (Image J). In short, to track fluorescence signal in a specific organelle, a ROI (region of interest) was determined by masking the signal in the ECFP (Enhanced Cyan Fluorescent Protein) channel with the plug-in HK-means with the following parameters: intensity class equals 100, minimum object size (pixels or px) equals 500, maximum object size (px) equals 1500-3000. […]

The structures appear in SMILES notation.

Take `Cc1cc(/C=C2\SC(=S)NC2=O)c(C)cc1O` [HBR-2,5DM, (Z)-5-(4-hydroxy-2,5-dimethylbenzylidene)-2-thioxo-1,3-thiazolidin-4-one]: where the note is “1 image per 5 seconds”, the “half-time of formation of the ternary fluorescent assembly” value is “about 20 seconds”. In addition, the “translocation of mCherry-^FIREtag from cytosol to mitochondria” value (5 min) is listed as “very rapid translocation of the mCherry-^FIREtag fusion protein from the cytosol to mitochondria”. Besides, the “FIRE signal (fluorescence) at the mitochondria” value (ex/em 488/508-570 nm) was “simultaneous appearance of a strong green fluorescent signal”.
